Holding throughout (assay type): cell-based
In test [1] the target is T1, CFTR ΔF508 mutant (Homo sapiens, UniProt P13569, DEL508-508).
T1 construct: expressed in transfected cells; host or cells: CFBE41o- (adenoviral transduction)
The test can be described thus: YFP-halide influx assay for the CFTR-ΔF508 mutation, gluconate buffer. The following applies: CFBE41o- cells, forskolin 10.67 μM. The procedure, abridged:
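CFBE41o- cells adenovirally transduced with CFTR ΔF508 and YFP H148Q/I152L, then held 24 h at 27 °C or treated with CFTR modulator 24 h at 37 °C. I− quenching recorded for 7 s after injection; activity as 1-F/F0, EC50 from concentration plot.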

The target in another test is T2, CFTR G551D mutant (Homo sapiens, UniProt P13569, G551D).
T2 construct: expressed in transfected cells; host or cells: HEK293 (reverse transfection with plasmid)
Put plainly: YFP-halide influx assay for the CFTR-G551D mutation. The following applies: HEK293 cells, forskolin 10.67 μM. An outline of the steps: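 HEK293 cells reverse-transfected with CFTR G551D and YFP H148Q/I152L/F47L halide sensor, expressed 24 h at 37 °C. Iodide-induced fluorescence quench recorded 7 s after I− injection; response = 1−F/F0, with EC50 from plot against compound concentration.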

Test [2] concerns the target T1, CFTR ΔF508 mutant. The test can be described thus: YFP-halide influx assay for the CFTR-ΔF508 mutation (384 well, FDSS/μCell). The following applies: CFBE41o- cells, CFTR-ΔF508, 1×D-PBS, fluorescence after 36 seconds. The procedure, abridged: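 Potentiator read-out as 1−F/F0, F taken 36 s after iodide addition, EC50 fitted against compound concentration. Cells: CFBE41o- expressing ΔF508 CFTR plus halide-sensitive YFP via adenovirus, rescued by 27 °C for 24 h or 24 h modulator at 37 °C.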

Broadly, the EC50 is the concentration needed to bring the measured effect to its halfway point. Low values mean greater potency, high ones weaker potency.

Structures are written as SMILES.

T2 sequence (P13569 whole entry G551D): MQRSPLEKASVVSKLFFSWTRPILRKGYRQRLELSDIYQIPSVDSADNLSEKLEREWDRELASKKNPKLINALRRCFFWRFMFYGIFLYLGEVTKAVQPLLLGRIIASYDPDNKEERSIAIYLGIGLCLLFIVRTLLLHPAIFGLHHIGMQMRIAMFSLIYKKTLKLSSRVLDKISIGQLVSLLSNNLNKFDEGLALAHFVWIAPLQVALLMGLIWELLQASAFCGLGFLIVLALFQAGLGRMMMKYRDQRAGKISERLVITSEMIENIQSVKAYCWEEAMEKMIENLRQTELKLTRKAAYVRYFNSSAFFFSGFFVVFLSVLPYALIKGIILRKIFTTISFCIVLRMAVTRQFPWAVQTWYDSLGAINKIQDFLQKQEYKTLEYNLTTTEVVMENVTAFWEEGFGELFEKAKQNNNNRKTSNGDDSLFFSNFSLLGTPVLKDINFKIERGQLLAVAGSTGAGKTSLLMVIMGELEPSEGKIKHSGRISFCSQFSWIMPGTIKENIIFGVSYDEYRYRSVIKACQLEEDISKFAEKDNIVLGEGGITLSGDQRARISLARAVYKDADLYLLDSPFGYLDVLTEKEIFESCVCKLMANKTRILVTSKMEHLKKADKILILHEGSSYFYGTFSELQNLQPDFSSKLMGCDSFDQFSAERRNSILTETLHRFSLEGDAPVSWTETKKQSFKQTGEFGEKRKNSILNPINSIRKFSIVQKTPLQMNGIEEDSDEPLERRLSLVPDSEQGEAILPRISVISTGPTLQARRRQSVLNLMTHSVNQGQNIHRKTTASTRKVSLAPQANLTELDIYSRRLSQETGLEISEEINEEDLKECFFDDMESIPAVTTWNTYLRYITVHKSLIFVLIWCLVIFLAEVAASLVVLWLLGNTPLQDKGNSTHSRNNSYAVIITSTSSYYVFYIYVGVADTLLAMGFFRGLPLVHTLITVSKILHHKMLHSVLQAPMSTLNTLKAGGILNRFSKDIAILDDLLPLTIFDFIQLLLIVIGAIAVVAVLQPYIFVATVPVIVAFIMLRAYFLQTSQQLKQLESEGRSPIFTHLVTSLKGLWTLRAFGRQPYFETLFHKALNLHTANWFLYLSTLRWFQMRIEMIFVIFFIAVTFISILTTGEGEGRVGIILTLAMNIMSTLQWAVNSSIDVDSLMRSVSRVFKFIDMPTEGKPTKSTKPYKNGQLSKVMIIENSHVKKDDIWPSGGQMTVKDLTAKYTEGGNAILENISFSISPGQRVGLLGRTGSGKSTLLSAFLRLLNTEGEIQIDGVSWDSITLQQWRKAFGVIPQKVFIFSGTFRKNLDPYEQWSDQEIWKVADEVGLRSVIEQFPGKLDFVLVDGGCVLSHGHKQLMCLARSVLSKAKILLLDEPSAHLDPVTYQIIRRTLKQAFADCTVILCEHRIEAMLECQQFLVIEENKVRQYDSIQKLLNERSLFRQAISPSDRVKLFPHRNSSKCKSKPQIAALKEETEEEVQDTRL
T1 sequence (P13569 with tags, fused parts or gaps DEL508-508): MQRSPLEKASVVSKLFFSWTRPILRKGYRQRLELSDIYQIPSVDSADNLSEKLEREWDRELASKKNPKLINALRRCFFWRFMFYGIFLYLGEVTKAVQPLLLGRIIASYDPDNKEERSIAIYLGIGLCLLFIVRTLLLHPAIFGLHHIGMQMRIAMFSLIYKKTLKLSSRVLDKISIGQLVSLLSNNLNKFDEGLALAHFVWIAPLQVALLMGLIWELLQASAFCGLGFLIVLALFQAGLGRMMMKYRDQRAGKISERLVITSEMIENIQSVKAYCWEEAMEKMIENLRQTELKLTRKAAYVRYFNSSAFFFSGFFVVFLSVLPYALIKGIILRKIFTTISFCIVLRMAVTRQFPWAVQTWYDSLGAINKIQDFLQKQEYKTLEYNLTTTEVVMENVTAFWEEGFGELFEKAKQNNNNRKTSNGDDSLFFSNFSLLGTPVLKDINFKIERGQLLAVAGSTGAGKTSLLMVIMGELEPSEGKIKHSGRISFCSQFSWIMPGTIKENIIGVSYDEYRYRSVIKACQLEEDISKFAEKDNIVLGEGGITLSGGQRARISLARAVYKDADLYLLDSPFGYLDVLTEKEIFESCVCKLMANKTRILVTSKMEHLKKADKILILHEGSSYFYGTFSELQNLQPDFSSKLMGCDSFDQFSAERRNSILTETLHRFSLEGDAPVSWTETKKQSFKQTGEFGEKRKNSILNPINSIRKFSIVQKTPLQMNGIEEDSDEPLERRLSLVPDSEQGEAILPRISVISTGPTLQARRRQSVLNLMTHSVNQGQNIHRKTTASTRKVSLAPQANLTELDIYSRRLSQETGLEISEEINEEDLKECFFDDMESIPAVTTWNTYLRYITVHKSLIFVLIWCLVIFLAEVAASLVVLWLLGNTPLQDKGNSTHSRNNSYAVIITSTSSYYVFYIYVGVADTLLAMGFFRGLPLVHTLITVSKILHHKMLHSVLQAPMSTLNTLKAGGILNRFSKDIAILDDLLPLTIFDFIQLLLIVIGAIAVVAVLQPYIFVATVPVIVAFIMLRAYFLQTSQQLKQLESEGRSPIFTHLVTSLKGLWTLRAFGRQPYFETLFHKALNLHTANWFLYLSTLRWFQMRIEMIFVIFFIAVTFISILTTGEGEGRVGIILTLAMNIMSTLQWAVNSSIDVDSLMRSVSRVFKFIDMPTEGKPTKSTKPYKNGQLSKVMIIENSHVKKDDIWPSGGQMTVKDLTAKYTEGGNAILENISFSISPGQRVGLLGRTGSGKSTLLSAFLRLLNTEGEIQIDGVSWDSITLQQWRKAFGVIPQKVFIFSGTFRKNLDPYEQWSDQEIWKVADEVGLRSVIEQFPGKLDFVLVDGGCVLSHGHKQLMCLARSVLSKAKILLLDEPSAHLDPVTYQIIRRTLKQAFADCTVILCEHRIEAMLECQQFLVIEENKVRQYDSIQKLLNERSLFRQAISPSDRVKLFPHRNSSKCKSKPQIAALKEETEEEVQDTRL

Regarding `NC(=O)c1cc(S(=O)(=O)N2CCOCC2)sc1NC(=O)c1ccc(F)cc1O` [Compound 198, 2-(4-fluoro-2-hydroxybenzamido)-5-(morpholinosulfonyl)thiophene-3-carboxamide], the EC50 is 97.2 nM at CFTR ΔF508 mutant [1], 136 nM at CFTR G551D mutant and 20.2 nM at CFTR ΔF508 mutant [2].
For `NC(=O)c1cc(S(=O)(=O)N2CCC(F)(F)CC2)sc1NC(=O)c1cc(C(F)(F)F)[nH]n1` [Compound 189, N-(3-carbmoyl-5-(4,4-difluoropiperidin-1-ylsulfonyl)thiophen-2-yl)-5-(trifluoromethyl)-1H-pyrazole-3-carboxamide], the values for the EC50 at CFTR ΔF508 mutant [1] and at CFTR G551D mutant were 122 nM and 226 nM, respectively.
For the compound `NC(=O)c1cc(S(=O)(=O)N2CCC(F)(F)CC2)sc1NC(=O)c1cc[nH]n1` [Compound 140, N-(3-carbamoyl-5-(4,4-difluoropiperidin-1-ylsulfonyl)thiophen-2-yl)-1H-pyrazole-3-carboxamide], the figures for the EC50 at CFTR ΔF508 mutant [1], at CFTR G551D mutant and on CFTR ΔF508 mutant [2] were 29.3 nM, 67.4 nM and 10.3 nM, respectively.
In the case of `CC(C)(C)c1cc(C(=O)Nc2sc(S(=O)(=O)N3CCC(F)(F)CC3)cc2C(N)=O)n[nH]1` [Compound 142, 5-tert-butyl-N-(3-carbamoyl-5-(4,4-difluoropiperidin-1-ylsulfonyl)thiophen-2-yl)-1H-pyrazole-3-carboxamide], the EC50 on CFTR ΔF508 mutant [1] was 70.7 nM; on CFTR G551D mutant, 536 nM; at CFTR ΔF508 mutant [2] it was 294 nM.
For the compound `CN(Cc1ccc(F)cc1)S(=O)(=O)c1cc(C(N)=O)c(NC(=O)c2cc[nH]n2)s1` [Compound 145, 1H-Pyrazole-3-carboxylic acid {3-carbamoyl-5-[(4-fluoro-benzyl)-methyl-sulfamoyl]-thiophen-2-yl}-amide], the concentration giving a half-maximal response (EC50) was found to be 19.5 nM on CFTR ΔF508 mutant [1], 215 nM at CFTR G551D mutant and 71 nM on CFTR ΔF508 mutant [2].
As for `CCc1cc(C(=O)Nc2sc(S(=O)(=O)N3CCC(F)(F)CC3)cc2C(N)=O)n[nH]1` [Compound 141, N-(3-carbamoyl-5-(4,4-difluoropiperidin-1-ylsulfonyl)thiophen-2-yl)-5-ethyl-1H-pyrazole-3-carboxamide], the EC50 came to 29.7 nM on CFTR ΔF508 mutant [1], 258 nM on CFTR G551D mutant and 98.2 nM on CFTR ΔF508 mutant [2].
For `CN(Cc1ccc(F)cc1F)S(=O)(=O)c1cc(C(N)=O)c(NC(=O)c2cc[nH]n2)s1` [Compound 172, N-(3-carbamoyl-5-(N-(2,4-difluorobenzyl)-N-methylsulfamoyl)thiophen-2-yl)-1H-pyrazole-3-carboxamide], the EC50 at CFTR ΔF508 mutant [1] was determined as 15.4 nM; on CFTR G551D mutant it was 136 nM; at CFTR ΔF508 mutant [2], 42 nM.
As for `CC(C)N(C)S(=O)(=O)c1cc(C(N)=O)c(NC(=O)c2cc[nH]n2)s1` [Compound 210, N-(3-carbamoyl-5-(N-isopropyl-N-methylsulfamoyl)thiophen-2-yl)-1H-pyrazole-3-carboxamide], the results for the EC50 on CFTR ΔF508 mutant [1], at CFTR G551D mutant and at CFTR ΔF508 mutant [2] were 73.5 nM, 470 nM and 13.4 nM, respectively.
Taken in the same sequence, the figures for `COCCN(CC(F)(F)F)S(=O)(=O)c1cc(C(N)=O)c(NC(=O)c2ccccc2F)s1` [Compound 157, 2-(2-fluorobenzamido)-5-(N-(2-methoxyethyl)-N-(2,2,2-trifluoroethy)sulfamoyl) thiophene-3-carboxamide] were 86.5 nM, 241 nM and 60.9 nM.
Consider `NC(=O)c1cc(S(=O)(=O)N2CCOCC2)sc1NC(=O)c1ccccc1O` [Compound 143, 2-(2-Hydroxy-benzoylamino)-5-(morpholine-4-sulfonyl)-thiophene-3-carboxylic acid amide], for which the values for the EC50 on CFTR ΔF508 mutant [1], on CFTR G551D mutant and at CFTR ΔF508 mutant [2] were 29.2 nM, 232 nM and 27.2 nM, respectively.
On to `NC(=O)c1cc(S(=O)(=O)N2CCC(F)(F)CC2)sc1NC(=O)c1ccccc1O` [Compound 190, 5-(4,4-difluoropiperidin-1-ylsulfonyl)-2-(2-hydroxybenzamido)thiophene-3-carboxamide], for which the EC50 at CFTR ΔF508 mutant [1] stood at 73.9 nM; on CFTR G551D mutant, 278 nM; at CFTR ΔF508 mutant [2], 83.3 nM.
Regarding `Cc1ccc(C(=O)Nc2sc(S(=O)(=O)c3ccccc3)cc2C(N)=O)s1` [Compound 16, N-(3-carbamoyl-5-(phenylsulfonyl)thiophen-2-yl)-5-methylthiophene-2-carboxamide], the figures for the EC50 at CFTR ΔF508 mutant [1] and on CFTR ΔF508 mutant [2] were 99.7 nM and 187 nM, respectively.
Take `COc1ccc(OC)c(S(=O)(=O)c2cc(C(N)=O)c(NC(=O)c3ccccc3F)s2)c1` [Compound 182, 5-(2,5-dimethoxyphenylsulfonyl)-2-(2-fluorobenzamido)thiophene-3-carboxamide]: the EC50 worked out at 97.9 nM at CFTR ΔF508 mutant [1] and 433 nM at CFTR ΔF508 mutant [2].
With `CCc1cc(C(=O)Nc2sc(S(=O)(=O)c3cccc(F)c3)cc2C(N)=O)n[nH]1` [Compound 114, N-(3-carbamoyl-5-(3-fluorophenylsulfonyl)thiophen-2-yl)-5-ethyl-1H-pyrazole-3-carboxamide], the EC50 at CFTR ΔF508 mutant [1] stood at 90.7 nM; at CFTR ΔF508 mutant [2] it was 102 nM.
As to `CCc1cc(C(=O)Nc2sc(S(=O)(=O)c3ccc(F)c(F)c3)cc2C(N)=O)n[nH]1` [Compound 119, N-(3-carbamoyl-5-(3,4-difluorophenylsulfonyl)thiophen-2-yl)-5-ethyl-1H-pyrazole-3-carboxamide], the figures for the EC50 at CFTR ΔF508 mutant [1] and on CFTR ΔF508 mutant [2] were 78.3 nM and 187 nM, respectively.
Take `NC(=O)c1cc(S(=O)(=O)c2ccc(F)cc2)sc1NC(=O)c1ccn[nH]1` [Compound 109, N-(3-carbamoyl-5-(4-fluorophenylsulfonyl)thiophen-2-yl)-1H-pyrazole-3-carboxamide]: the EC50 on CFTR ΔF508 mutant [1] worked out at 28.6 nM; on CFTR ΔF508 mutant [2], 28.9 nM.
In the case of `CN(C1CC1)S(=O)(=O)c1cc(C(N)=O)c(NC(=O)c2ccccc2F)s1` [Compound 152, 5-(N-cyclopropyl-N-methylsulfamoyl)-2-(2-fluorobenzamido)thiophene-3-carboxamide], the EC50 on CFTR ΔF508 mutant [1] amounted to 82.1 nM; on CFTR ΔF508 mutant [2], 135 nM.
As to `CN(CC1CC1)S(=O)(=O)c1cc(C(N)=O)c(NC(=O)c2cc[nH]n2)s1` [Compound 193, N-(3-carbamoyl-5-(N-(cyclopropylmethyl)-N-methylsulfamoyl)thiophen-2-yl)-1H-pyrazole-3-carboxamide], the EC50 was determined as 114 nM at CFTR ΔF508 mutant [1], 206 nM on CFTR G551D mutant and 49.5 nM at CFTR ΔF508 mutant [2].
In the case of `CCc1cc(C(=O)Nc2sc(S(=O)(=O)c3ccccc3)cc2C(N)=O)n[nH]1` [Compound 95, N-(3-carbamoyl-5-(phenylsulfonyl)thiophen-2-yl)-5-ethyl-1H-pyrazole-3-carboxamide], the EC50 at CFTR ΔF508 mutant [1] turned out to be 99.4 nM; on CFTR ΔF508 mutant [2], 101 nM.
Consider `CCN(C)S(=O)(=O)c1cc(C(N)=O)c(NC(=O)c2ccc(C)s2)s1` [Compound 3, N-(3-carbamoyl-5-(N-ethyl-N-methylsulfamoyl)thiophen-2-yl)-5-methylthiophene-2-carboxamide], for which the EC50 was determined as 107 nM at CFTR ΔF508 mutant [1] and 109 nM on CFTR ΔF508 mutant [2].
Consider `NC(=O)c1cc(S(=O)(=O)N(Cc2ccc(F)cc2)C2CC2)sc1NC(=O)c1cc[nH]n1` [Compound 191, N-(3-carbamoyl-5-(N-cyclopropyl-N-(4-fluorobenzyl)sulfamoyl)thiophen-2-yl)-1H-pyrazole-3-carboxamide], for which the EC50 is 90 nM at CFTR ΔF508 mutant [1], 245 nM on CFTR G551D mutant and 197 nM at CFTR ΔF508 mutant [2].
For the compound `NC(=O)c1cc(S(=O)(=O)N2CCCCC2)sc1NC(=O)c1ccn[nH]1` [Compound 36, N-(3-carbamoyl-5-(piperidin-1-ylsulfonyl)thiophen-2-yl)-1H-pyrazole-3-carboxamide], the EC50 on CFTR ΔF508 mutant [1] turned out to be 92.3 nM; on CFTR ΔF508 mutant [2] it was 13.1 nM.
Taken in the same sequence, the figures for `CCc1ccccc1S(=O)(=O)c1cc(C(N)=O)c(NC(=O)c2ccccc2F)s1` [Compound 121, 5-(2-ethylphenylsulfonyl)-2-(2-fluorobenzamido) thiophene-3-carboxamide] were 74.9 nM and 292 nM.
`NC(=O)c1cc(S(=O)(=O)N2CCC(F)(F)CC2)sc1NC(=O)C1(O)CC1` [Compound 139, 5-(4,4-difluoropiperidin-1-ylsulfonyl)-2-(1-hydroxycyclopropanecarboxamido) thiophene-3-carboxamide]: the EC50 on CFTR ΔF508 mutant [1] came to 114 nM; at CFTR ΔF508 mutant [2], 55.5 nM.
The matching figures for `NC(=O)c1cc(S(=O)(=O)c2ccc(F)cc2)sc1NC(=O)c1ccccc1F` [Compound 111, 2-(2-fluorobenzamido)-5-(4-fluorophenylsulfonyl) thiophene-3-carboxamide]: 84.3 nM and 199 nM.
The matching figures for `CCc1cc(C(=O)Nc2sc(S(=O)(=O)c3ccccc3F)cc2C(N)=O)n[nH]1` [Compound 116, N-(3-carbamoyl-5-(2-fluorophenylsulfonyl)thiophen-2-yl)-5-ethyl-1H-pyrazole-3-carboxamide]: 59.7 nM and 63.5 nM.
As to `NC(=O)c1cc(S(=O)(=O)c2cccc(F)c2)sc1NC(=O)c1cc[nH]n1` [Compound 113, N-(3-carbamoyl-5-(3-fluorophenylsulfonyl)thiophen-2-yl)-1H-pyrazole-3-carboxamide], the EC50 at CFTR ΔF508 mutant [1] came out at 29.2 nM; on CFTR ΔF508 mutant [2] it was 5.8 nM.
